Assay results: PubChem BioAssay (NCI)
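Grown in 96-well plates, cells were treated for 48 hours with each compound at five concentrations. Insufficient inhibition: endpoint recorded as highest concentration tested. Here, GI50 denotes the concentration required for 50% inhibition of growth. The concentration for full growth arrest is given as TGI.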

Columns and labels:
Test in all cases: inhibition of tumour cell growth, NCI panel, 48 h
786-0 renal = system: 786-0 renal
A498 renal = system: A498 renal
A549 NSCLC = system: A549 NSCLC
ACHN renal = system: ACHN renal
BT-549 breast = system: BT-549 breast
CAKI-1 renal = system: CAKI-1 renal
CCRF-CEM leukemia = system: CCRF-CEM leukemia
COLO 205 colon = system: COLO 205 colon
DU-145 prostate = system: DU-145 prostate
EKVX NSCLC = system: EKVX NSCLC
HCC-2998 colon = system: HCC-2998 colon
HCT-116 colon = system: HCT-116 colon
HCT-15 colon = system: HCT-15 colon
HL-60(TB) leukemia = system: HL-60(TB) leukemia
HOP-62 NSCLC = system: HOP-62 NSCLC
HOP-92 NSCLC = system: HOP-92 NSCLC
HS 578T breast = system: HS 578T breast
HT29 colon = system: HT29 colon
IGROV1 ovarian = system: IGROV1 ovarian
K-562 leukemia = system: K-562 leukemia
KM12 colon = system: KM12 colon
LOX IMVI melanoma = system: LOX IMVI melanoma
M14 melanoma = system: M14 melanoma
MALME-3M melanoma = system: MALME-3M melanoma
MCF7 breast = system: MCF7 breast
MDA-MB-231 breast = system: MDA-MB-231 breast
MDA-MB-435 = system: MDA-MB-435
NCI-H226 lung = system: NCI-H226 lung
NCI-H23 lung = system: NCI-H23 lung
NCI-H460 lung = system: NCI-H460 lung
NCI-H522 lung = system: NCI-H522 lung
NCI/ADR-RES ovarian = system: NCI/ADR-RES ovarian
OVCAR-3 ovarian = system: OVCAR-3 ovarian
OVCAR-4 ovarian = system: OVCAR-4 ovarian
OVCAR-5 ovarian = system: OVCAR-5 ovarian
OVCAR-8 ovarian = system: OVCAR-8 ovarian
PC-3 prostate = system: PC-3 prostate
RPMI-8226 leukemia = system: RPMI-8226 leukemia
RXF 393 renal = system: RXF 393 renal
SF-268 CNS = system: SF-268 CNS
SF-295 CNS = system: SF-295 CNS
SF-539 CNS = system: SF-539 CNS
SK-MEL-2 melanoma = system: SK-MEL-2 melanoma
SK-MEL-28 melanoma = system: SK-MEL-28 melanoma
SK-MEL-5 melanoma = system: SK-MEL-5 melanoma
SK-OV-3 ovarian = system: SK-OV-3 ovarian
SN12C renal = system: SN12C renal
SNB-19 CNS = system: SNB-19 CNS
SNB-75 CNS = system: SNB-75 CNS
SR leukemia = system: SR leukemia
SW-620 colon = system: SW-620 colon
T-47D breast = system: T-47D breast
TK-10 renal = system: TK-10 renal
U251 CNS = system: U251 CNS
UACC-257 melanoma = system: UACC-257 melanoma
UACC-62 melanoma = system: UACC-62 melanoma
UO-31 renal = system: UO-31 renal

C#C[C@]1(O)CC[C@H]2[C@@H]3CC=C4c5sc(-c6cccc(O)c6)nc5CC[C@]4(C)[C@H]3CC[C@@]21C
GI50 (786-0 renal): 386 nM
TGI (786-0 renal): 1880 nM
GI50 (A498 renal): 15200 nM
TGI (A498 renal): 32500 nM
GI50 (A549 NSCLC): 2570 nM
TGI (A549 NSCLC): 11000 nM
GI50 (ACHN renal): 687 nM
TGI (ACHN renal): 6720 nM
GI50 (BT-549 breast): 1070 nM
TGI (BT-549 breast): 3470 nM
GI50 (CAKI-1 renal): 2250 nM
TGI (CAKI-1 renal): 5150 nM
GI50 (CCRF-CEM leukemia): 339 nM
TGI (CCRF-CEM leukemia): > 100000 nM
GI50 (COLO 205 colon): 5410 nM
TGI (COLO 205 colon): 20800 nM
GI50 (DU-145 prostate): 2450 nM
TGI (DU-145 prostate): 17500 nM
GI50 (EKVX NSCLC): 2500 nM
TGI (EKVX NSCLC): 10700 nM
GI50 (HCC-2998 colon): 1810 nM
TGI (HCC-2998 colon): 5120 nM
GI50 (HCT-116 colon): 993 nM
TGI (HCT-116 colon): 3000 nM
GI50 (HCT-15 colon): 505 nM
TGI (HCT-15 colon): 1940 nM
GI50 (HL-60(TB) leukemia): 835 nM
TGI (HL-60(TB) leukemia): 6120 nM
GI50 (HOP-62 NSCLC): 1480 nM
TGI (HOP-62 NSCLC): 4390 nM
GI50 (HOP-92 NSCLC): 1450 nM
TGI (HOP-92 NSCLC): 3070 nM
GI50 (HS 578T breast): 207 nM
TGI (HS 578T breast): 642 nM
GI50 (HT29 colon): 3170 nM
TGI (HT29 colon): 10800 nM
GI50 (IGROV1 ovarian): 2980 nM
TGI (IGROV1 ovarian): 10300 nM
GI50 (K-562 leukemia): 506 nM
TGI (K-562 leukemia): > 100000 nM
GI50 (KM12 colon): 1150 nM
TGI (KM12 colon): 5000 nM
GI50 (LOX IMVI melanoma): 269 nM
TGI (LOX IMVI melanoma): 1260 nM
GI50 (M14 melanoma): 252 nM
TGI (M14 melanoma): 671 nM
GI50 (MALME-3M melanoma): 421 nM
TGI (MALME-3M melanoma): 2980 nM
GI50 (MCF7 breast): 1560 nM
TGI (MCF7 breast): 4390 nM
GI50 (MDA-MB-231 breast): 1050 nM
TGI (MDA-MB-231 breast): 4100 nM
GI50 (MDA-MB-435): 1320 nM
TGI (MDA-MB-435): 3940 nM
GI50 (NCI-H226 lung): 5250 nM
TGI (NCI-H226 lung): 25000 nM
GI50 (NCI-H23 lung): 1550 nM
TGI (NCI-H23 lung): 3670 nM
GI50 (NCI-H460 lung): 2570 nM
TGI (NCI-H460 lung): 7130 nM
GI50 (NCI-H522 lung): 1480 nM
TGI (NCI-H522 lung): 3580 nM
GI50 (NCI/ADR-RES ovarian): 1950 nM
TGI (NCI/ADR-RES ovarian): 5580 nM
GI50 (OVCAR-3 ovarian): 2480 nM
TGI (OVCAR-3 ovarian): 7460 nM
GI50 (OVCAR-4 ovarian): 2730 nM
TGI (OVCAR-4 ovarian): 9520 nM
GI50 (OVCAR-5 ovarian): 2250 nM
TGI (OVCAR-5 ovarian): 5930 nM
GI50 (OVCAR-8 ovarian): 2100 nM
TGI (OVCAR-8 ovarian): > 100000 nM
GI50 (PC-3 prostate): 357 nM
TGI (PC-3 prostate): 1720 nM
GI50 (RPMI-8226 leukemia): 157 nM
TGI (RPMI-8226 leukemia): 725 nM
GI50 (RXF 393 renal): 177 nM
TGI (RXF 393 renal): 449 nM
GI50 (SF-268 CNS): 1990 nM
TGI (SF-268 CNS): 17500 nM
GI50 (SF-295 CNS): 178 nM
TGI (SF-295 CNS): 437 nM
GI50 (SF-539 CNS): 151 nM
TGI (SF-539 CNS): 538 nM
GI50 (SK-MEL-2 melanoma): 528 nM
TGI (SK-MEL-2 melanoma): 2390 nM
GI50 (SK-MEL-28 melanoma): 236 nM
TGI (SK-MEL-28 melanoma): 640 nM
GI50 (SK-MEL-5 melanoma): 1650 nM
TGI (SK-MEL-5 melanoma): 3060 nM
GI50 (SK-OV-3 ovarian): 2070 nM
TGI (SK-OV-3 ovarian): 6830 nM
GI50 (SN12C renal): 2300 nM
TGI (SN12C renal): 9980 nM
GI50 (SNB-19 CNS): 1260 nM
TGI (SNB-19 CNS): 4280 nM
GI50 (SNB-75 CNS): 319 nM
TGI (SNB-75 CNS): 6100 nM
GI50 (SR leukemia): 460 nM
TGI (SR leukemia): > 100000 nM
GI50 (SW-620 colon): 653 nM
TGI (SW-620 colon): 2360 nM
GI50 (T-47D breast): 2580 nM
TGI (T-47D breast): 7270 nM
GI50 (TK-10 renal): 2760 nM
TGI (TK-10 renal): 9190 nM
GI50 (U251 CNS): 688 nM
TGI (U251 CNS): 2960 nM
GI50 (UACC-257 melanoma): 1860 nM
TGI (UACC-257 melanoma): 4630 nM
GI50 (UACC-62 melanoma): 2300 nM
TGI (UACC-62 melanoma): 5550 nM
GI50 (UO-31 renal): 460 nM
TGI (UO-31 renal): 5750 nM
